Source: the NIST ThermoML archive (doi:10.1016/j.jct.2011.09.008)

Test: xn = mol fraction of the nth substance listed
Conditions: 101 kPa, Liquid, Sing-around technique in a fixed-path interferometer

CCCOCC(C)O (stereo not given) [1-propoxy-2-propanol] + O
speed of sound [m/s]
Conditions | 283.15 K | 288.15 K | 293.15 K | 298.15 K | 303.15 K
x1 = 0.00326 | 1470.7 | 1487.1 | 1501.5 | 1514.2 | 1527.5
x1 = 0.00845 | 1503.1 | 1516.8 | 1528.7 | 1538.8 | 1548.3
x1 = 0.01369 | 1533.3 | 1543.7 | 1552.5 | 1560.1 | 1565.5
x1 = 0.01942 | 1563.4 | 1570.1 | 1575.7 | 1579.2 | 1581.5
x1 = 0.02453 | 1582.6 | 1585.6 | 1586.9 | 1586.7 | 1585.7
x1 = 0.02855 | 1594.9 | 1594 | 1591.7 | 1587.7 | 1582.4
x1 = 0.03532 | 1598 | 1590.9 | 1583.2 | 1575.1 | 1566.6
x1 = 0.04675 | 1577.1 | 1566.9 | 1557 | 1547.1 | 1536.8
x1 = 0.06359 | 1545.3 | 1535.2 | 1524.6 | 1513.5 | 1501.6
x1 = 0.08224 | 1520.5 | 1509.6 | 1498.1 | 1486 | 1472.6
x1 = 0.09758 | 1504.9 | 1493.2 | 1481 | 1467.8 | 1454
x1 = 0.1185 | 1487.8 | 1475.4 | 1462.3 | 1448.6 | 1434
x1 = 0.145 | 1470.9 | 1457.6 | 1444 | 1429.6 | 1414.6
x1 = 0.1945 | 1447.2 | 1433.1 | 1418.6 | 1403.7 | 1388.4
x1 = 0.2213 | 1437.3 | 1422.4 | 1407.9 | 1392.7 | 1377.5
x1 = 0.2686 | 1422.1 | 1406.9 | 1391.7 | 1376 | 1360.6
x1 = 0.3432 | 1402.5 | 1386.5 | 1370.8 | 1354.5 | 1338.5
x1 = 0.4424 | 1381.2 | 1364.5 | 1347.8 | 1330.9 | 1314.2
x1 = 0.5415 | 1363 | 1345.7 | 1328.4 | 1311 | 1293.7
x1 = 0.6444 | 1346.5 | 1328.6 | 1310.8 | 1293 | 1275.3
x1 = 0.7056 | 1337.3 | 1319.3 | 1301.3 | 1283.3 | 1265.3
x1 = 0.7569 | 1330.3 | 1312 | 1293.9 | 1275.7 | 1257.7
x1 = 0.7951 | 1325.2 | 1306.9 | 1288.7 | 1270.4 | 1252.4
x1 = 0.8374 | 1320.2 | 1301.4 | 1283.2 | 1264.8 | 1246.5
x1 = 0.88 | 1314.6 | 1296.2 | 1277.8 | 1259.4 | 1240.9
x1 = 0.9193 | 1310.3 | 1291.7 | 1273.4 | 1254.8 | 1236.5
x1 = 0.9597 | 1306 | 1287.3 | 1268.9 | 1250.2 | 1231.7
x1 = 1 | 1301.9 | 1283.2 | 1264.5 | 1245.8 | 1227.3
